Results on 1 molecule are retold here after article PMC7506137, “Selective Phosphodiesterase 1 Inhibitor BTTQ Reduces Blood Pressure in Spontaneously Hypertensive and Dahl Salt Sensitive Rats: Role of Peripheral Vasodilation” (Frontiers in Physiology, 2020).

In one data set the target is T1, Rat PDE1B (Rattus norvegicus, UniProt Q01066).
T1 construct: made in house; host or cells: baculovirus-infected insect cells
T1 sequence (Q01066 1-535): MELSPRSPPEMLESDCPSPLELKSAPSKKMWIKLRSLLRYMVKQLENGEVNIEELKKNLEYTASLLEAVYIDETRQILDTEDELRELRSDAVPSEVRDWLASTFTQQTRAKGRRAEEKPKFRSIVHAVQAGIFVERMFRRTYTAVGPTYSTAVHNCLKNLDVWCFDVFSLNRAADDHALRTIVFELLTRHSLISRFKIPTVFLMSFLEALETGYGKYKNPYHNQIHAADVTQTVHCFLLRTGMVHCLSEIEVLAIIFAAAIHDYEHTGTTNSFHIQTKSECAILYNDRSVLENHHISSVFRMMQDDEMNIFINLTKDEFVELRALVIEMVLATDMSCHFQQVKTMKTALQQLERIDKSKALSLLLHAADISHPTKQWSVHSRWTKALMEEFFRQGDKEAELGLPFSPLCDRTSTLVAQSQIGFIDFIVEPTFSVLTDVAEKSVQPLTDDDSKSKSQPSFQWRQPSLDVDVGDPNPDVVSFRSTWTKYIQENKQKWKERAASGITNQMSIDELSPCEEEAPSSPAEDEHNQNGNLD
In words: PDE scintillation proximity enzyme assay. It is filed as biochemical. As to the method: (§1) All PDE enzyme activities were measured with a yittrium silicate based scintillation proximity assay that detects radioactive nucleotide monophosphates but not cyclic monophosphates. Assays are conducted in a total volume of 50 μl in 384 well plates (3706, Corning): comprised of 24 μl enzyme, 1 μl compound, and 25 μl of cyclic nucleotide. The general assay buffer consists of 50 mM Tris-HCl (pH 7.5) and 0.1% (w/v) bovine serum albumin (Fatty Acid Free, Sigma-Aldrich). Enzyme concentrations, substrate concentrations, and various PDE-specific buffer additives are described in Supplementary Table 1. Compounds to be tested are diluted in pure dimethyl sulfoxide (DMSO) using 10-point concentration-response curves, and 1 μl is acoustically dispensed into assay plates using the Echo555 (LabCyte). Maximal compound concentration in the reaction mixture is either 10 or 100 μM. Compounds at the appropriate concentration are pre-incubated with either of the PDE enzymes for 30 min before the reaction is started by the addition of substrate ([8-^3H]-cAMP, 20.7 Ci/mmol or [8-^3H]-cGMP; 6.5 Ci/mmol, Perkin Elmer). Reactions are allowed to proceed for 60 min at room temperature before quenching. Next, reactions are stopped by the addition of 400 μg/per well SPA beads (RPNQ0150, Perkin Elmer) and a potent non-selective PDE inhibitor to quench the reaction. Bead bound radioactivity (product) is quantified 12 h later a Microbeta counter (Perkin Elmer). Data is normalized to % inhibition using standard methods ([Campbell et al., 2004]), and IC50 values were plotted using PRISM (GraphPad Software) using the 4 parameter logistic equation ([Campbell et al., 2004]). Data for potency values are expressed as the geometric mean and arithmetic standard deviation.

In another data set the target is T2, Rat PDE3A (Rattus norvegicus, UniProt Q62865).
T2 construct: made in house; host or cells: baculovirus-infected insect cells
T2 sequence (Q62865 1-1141): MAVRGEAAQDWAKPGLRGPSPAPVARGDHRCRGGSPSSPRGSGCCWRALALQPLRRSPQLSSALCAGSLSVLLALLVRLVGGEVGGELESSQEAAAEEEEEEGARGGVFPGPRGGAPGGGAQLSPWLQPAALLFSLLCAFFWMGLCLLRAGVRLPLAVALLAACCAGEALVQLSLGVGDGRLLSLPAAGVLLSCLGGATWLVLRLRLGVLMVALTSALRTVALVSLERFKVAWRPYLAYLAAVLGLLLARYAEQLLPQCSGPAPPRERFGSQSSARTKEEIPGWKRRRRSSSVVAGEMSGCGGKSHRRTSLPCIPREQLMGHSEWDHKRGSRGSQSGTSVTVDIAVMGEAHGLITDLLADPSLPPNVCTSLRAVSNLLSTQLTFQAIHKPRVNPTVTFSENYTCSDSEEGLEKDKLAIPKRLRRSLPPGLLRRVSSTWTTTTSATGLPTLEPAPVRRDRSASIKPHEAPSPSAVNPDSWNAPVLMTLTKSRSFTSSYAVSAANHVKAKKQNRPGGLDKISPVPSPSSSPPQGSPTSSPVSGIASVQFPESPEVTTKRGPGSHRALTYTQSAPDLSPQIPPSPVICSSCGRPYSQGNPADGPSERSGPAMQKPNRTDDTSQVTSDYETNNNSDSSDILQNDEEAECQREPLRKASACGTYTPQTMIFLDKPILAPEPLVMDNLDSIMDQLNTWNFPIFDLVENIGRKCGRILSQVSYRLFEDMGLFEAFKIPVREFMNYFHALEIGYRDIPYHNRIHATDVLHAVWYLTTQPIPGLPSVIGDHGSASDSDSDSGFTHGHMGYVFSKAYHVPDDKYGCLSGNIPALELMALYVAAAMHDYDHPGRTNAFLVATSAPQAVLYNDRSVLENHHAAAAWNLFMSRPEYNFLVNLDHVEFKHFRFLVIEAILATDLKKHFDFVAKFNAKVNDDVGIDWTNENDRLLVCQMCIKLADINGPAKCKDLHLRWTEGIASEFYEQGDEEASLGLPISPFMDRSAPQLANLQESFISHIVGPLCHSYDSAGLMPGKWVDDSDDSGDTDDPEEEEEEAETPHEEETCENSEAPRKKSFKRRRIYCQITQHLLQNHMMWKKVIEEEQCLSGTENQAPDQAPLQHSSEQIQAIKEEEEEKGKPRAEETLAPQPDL
In words: PDE scintillation proximity enzyme assay. Format: biochemical. The procedure: as §1

Data set [1] is described as follows: Fraction unbound in rat plasma. The following applies: read-out: FU Value (FU Plasma Exp Rat). It is filed as in vitro ADME. An excerpt: Supplement Table_2.xlsx, sheet "Supplementary table 2"
The next data set relates to PDE1. In words: Calculated target engagement from unbound drug concentration. It is filed as in vivo, Rat. The following applies: for % TE: 1 h, hill slope 1.
A short description of data set [2]: Rat PK parameters (IV and oral). It is filed as in vivo.

Each structure is given as a SMILES string. Like-named read-outs stand apart in the source and are kept apart here.

For `O=c1c2nnc(C3(C4CC4)CC3)n2c2c(n1CC1CC1)CCCC2` [BTTQ, 1-[1,1′-bi(cyclopropyl)-1-yl]-5-(cyclopropylmethyl)-6,7,8,9-tetrahydro[1,2,4]triazolo[4,3-A]quinoxaline-4(5H)-one], the IC50 was 1 nM on Rat PDE1B, “inactive” against Rat PDE3A, > 100 µM on Rat PDE3A (read-out: IC50) and 1.37 nM with PDE1 (IC50 used for the target engagement calculation). Besides, in data set [1], the fraction unbound was found to be 0.053. Further, the “% TE” value was 88.55% in the data set with PDE1 (dose 0.1 (mg/kg oral)), 95.29% in the data set with PDE1 (dose 0.3 (mg/kg oral)), 98.54% in the data set on PDE1 (dose 1 (mg/kg oral)) and 99.31% in the data set on PDE1 (dose 3 (mg/kg oral)). Further, the “% of dose recovered in urine” value in data set [2] was found to be 0.4%. Besides, the clearance in data set [2] (in vivo, 1 mg/kg, IV 1 mpk, mean ± SD, 3 animals) is 3.2 ± 0.6 mL/min/kg. The Vd in data set [2] (in vivo, 1 mg/kg, IV 1 mpk, mean ± SD, 3 animals, read-out: IV Vdss) was 0.6 ± 0.04 L/kg. In addition, in data set [2] (in vivo, 1 mg/kg, IV 1 mpk, mean ± SD, 3 animals, read-out: IV t1/2 (converted)), the half-life is 162 ± 30 min. The molecule also returned a bioavailability in data set [2] (in vivo, IV 1 mpk and oral 10 mpk, mean ± SD, 3 animals) of 58 ± 20%.
